One may read the MIC as the lowest concentration found to suppress growth.

Our source for the median post-infection survival, MIC and Eukaryotic cell cytotoxicity values is PMC7459823, “Characterization of Five Novel Anti-MRSA Compounds Identified Using a Whole-Animal Caenorhabditis elegans/Galleria mellonella Sequential-Screening Approach” (Antibiotics, 2020).

In series [1] the test system is MRSA MW2 infection of Galleria mellonella larvae. Description: G. mellonella–MRSA survival assay. The series is classed as in vivo. Conditions: larvae infected with MRSA MW2 5 × 10^5 CFU, compound 10 mg/kg 2 h after infection, monitored 120 h; untreated 1 day. Here is the method: Larvae were infected with MRSA MW2 (5 × 10^5 CFU) in the left rear proleg, and after two hours, the compounds were introduced separately at 10 mg/kg into the right rear proleg and larvae survival was monitored for 120 h.
Assays were performed as described previously. Briefly, sixteen randomly selected G. mellonella larvae (Vanderhorst, Inc., St. Mary’s, OH, USA) between 300–350 mg were used for each test group. MRSA-MW2 was grown in Tryptic Soy Broth (TSB), washed with phosphate buffered saline (PBS, pH = 7.4), and diluted to OD600 = 0.3 before inoculation into G. mellonella larvae. A 10-μL inoculum was injected into the last left proleg using a 10-μL Hamilton syringe. After 2 h, compounds were administered into the last right proleg and larvae were incubated at 37 °C. G.mellonella survival was monitored for 120 h, and death was confirmed when there was no response. Killing curves and differences in survival were analyzed by the Kaplan–Meier method using GraphPad Prism version 8 (GraphPad Software, La Jolla, CA, USA). Statistical analysis (Kruskal–Wallis test) was carried out using the same program.

In a further series the test system is Acinetobacter baumannii. Description: Broth microdilution MIC, Acinetobacter baumannii. Conditions: read-out: MIC. The series is classed as cell-based. Here is the method: (§1) In vitro antibacterial activities were determined using the broth microdilution method. Assays were performed as described in Clinical and Laboratory Standards Institute protocols in triplicate using cation-adjusted Muller–Hinton broth (Becton Dickinson and Company, Franklin Lakes, NJ, USA) in 96-well plates with a total assay volume of 100 µL. Two-fold serial dilutions of test compounds were prepared over the concentration range of 1–64 µg/mL. The bacterial concentration was adjusted to OD600 = 0.06. […] A 10 µL aliquot from each well in the MIC assays was plated onto Muller–Hinton agar (Becton Dickinson and Company, Franklin Lakes, NJ, USA) and incubated overnight at 37 °C. The lowest concentration of compound for which no growth was observed on agar plates was reported as the minimal bactericidal concentration (MBC).
On the technique in general: Broth dilution looks for growth in wells or tubes with falling amounts of substance.

The subject of the next series is A549. Conditions: human, 24 h.
For series [2], the system named is clinical S. aureus isolate BF3. Description: Broth microdilution MIC, clinical S. aureus isolate BF3. In kind it is cell-based. Conditions: Staphylococcus aureus; BF3; read-out: MIC. Here is the method:
as §1

The next series has as its system Enterobactor aerogens. Description: Broth microdilution MIC, Enterobactor aerogens. In kind it is cell-based. Conditions: Enterobactor aerogens; read-out: MIC. Here is the method: as §1

Converted amounts (≈) assume the structure as drawn.

Protocol for A549: Mammalian cell lines HepG2 (hepatic cells), A549 (epithelial cells), and MKN-28 (gastric cells) were used to measure the anti-proliferative properties of test compounds, as described elsewhere [28]. Cells were grown in Dulbecco’s Modified Eagle Medium (DMEM) (Gibco, Waltham, MA, USA) supplemented with 10% Fetal Bovine Serum (FBS) (Gibco, Waltham, MA, USA) and 1% penicillin/streptomycin (Gibco, Waltham, MA, USA) and maintained at 37 °C in 5% CO2. After harvesting, the cells were suspended in DMEM and 100 µL was added to the wells of 96-well plates. The test compounds were serially diluted in serum and antibiotic free DMEM, added to the monolayer of cells, and incubated at 37 °C in 5% CO2 for 24 hr. Percentage survival was calculated by comparison to DMSO-treated vehicle controls. Assays were carried out in triplicate.

With `Cc1cc(I)ccc1Nc1c(C(=O)NOCC2CC2)cc(F)c(F)c1F` [PD198306, N-(Cyclopropylmethoxy)-3,4,5-trifluoro-2-[(4-iodo-2-methylphenyl)amino]-benzamide], in series [1], the median post-infection survival is reported as 2 days. Further, the MIC is 32 µg/mL (≈ 67.2 µM) in the series on Acinetobacter baumannii, 2 µg/mL (≈ 4.2 µM) in series [2] and more than 64 µg/mL in the series on Enterobactor aerogens. The Eukaryotic cell cytotoxicity with A549 was found to be 16 µg/mL.
